# Patent US20140315972A1, “RS)-2-(2-oxo-4-phenylpyrrolidin-1-yl)acetamide compound having modulatory activity with a commensurate effect, pharmaceutical substance (variants) and its application, composition (variants) thereof” (priority 2011, published 2014)
# Values joined by “and” are separate entries in the source; they are usually repeats but may differ in a detail not shown here. Equal values may be shown once. Marks after values point to notes of the source that are not given here.
# Assays:
# [1] = tested on: patients; assay: Acneiform rash, topical solution; format: in vivo, human; conditions: for Efficacy expressed in % (acne rush during hormonal alteration): humans, topically 0.1% aqueous solution, baseline control = 100
# Procedure: A study of effect of Phenotropil on the scalp and face skin in seborrhea oleosa and on the scalp skin in dry seborrhea, as well in the mixed form, was performed on mixed groups of both sexes (15-37 years). The 0.1% Phenotropil solution was used. In the group with mixed form, additional Phenotropil tablets were administered at a dose of 100 mg per day (in the morning). The baseline examinations were used as control. The prepared samples were rubbed into the scalp once a day 1 or 2 hours before bedtime. In the case of acneiform rash, the skin was wiped in the morning and evening by cotton pads soaked (as usual lotion) by 0.1% aqueous Phenotropil. Washing the hair using shampoo was not recommended. A neutral baby soap “Alice” by OAO Svoboda and the rinse prepared with 25 ml of lemon juice and 100 mg Phenotropil powder per 1000.0 ml water were used. Studies were conducted for 28 calendar days with monitoring examinations every 14 days. In the dry seborrhea group, three patients withdrew from the study after two weeks due to reluctance to undergo further examination; they found it difficult to comply with the regime of the detergents use. The skin state was assessed by a 4-point system, where 0—absent, 1—the effect intensity less than 50.0%, 2—the effect intensity more than 50.0%, 3—the effect intensity more than 80% but less than 100.0% of the cases.
# [2] = tested on: cats; format: in vivo; conditions: anesthetized cats; single i.v.; 100 mg/kg (title)
# [3] = tested on: mice; assay: Benzedrine-induced stimulation of orientation-locomotor activity; format: in vivo
# From the text: In regard to influencing the effects of Benzedrine, Phenotropil also can provide, depending on the dose, the diametrically opposite activity when in combination with psychostimulants. This fact must be taken into account in combined use of various pharmacological agents.
# [4] = tested on: mice; conditions: animals; prior art Phenotropil products; cited from earlier work
# [5] = tested on: rats; assay: Acute toxicity, single intraperitoneal injection in rats aged 30-35 days; format: in vivo
# Procedure: (§1) Tables 2, 2.1 and 2.2 present the results of acute toxicity studies of the Compounds with active substance content in at least white outbred male mice (body weight 18-24 g) and white outbred rats 30-35 days of age, of both sexes with a single dose. Calculation of toxic doses was made using the Wilcoxon and Litchfield method. Observations were made over 24 hours and 14 days after a single dose.
# (§2) LD50 in rat pups after intragastric administration was not found. Intragastric administration to rat pups of doses of more than 1000 mg/kg is technically impossible due to the small volume of the stomach (Table 2.2).
# [6] = as above; format: in vivo; conditions: both sexes, white outbred, rat, in vivo, ip; rats 30-35 days; single i.p.
# Procedure: as §1, §2
# [7] = tested on: MDA (malondialdehyde); assay: Plasma TBA-MDA under negative stress (Ns, Ds); format: in vivo, rats; conditions: for km % vs experimental control (saline): Ds seven days + 200 mg/kg, listed as Phenotropil
# [8] = tested on: cAMP; assay: cAMP level in functional dysmenorrhea patients; format: in vivo, human; conditions: for cAMP level / cAMP level, change in % (vs background dysmenorrhea): human plasma, primary dysmenorrhoea, first phase of the cycle
# Procedure: Investigation of the effect of Phenotropil in amenorrhea and functional dysmenorrhea was conducted on groups of patients aged 14-27 years. The first group (20-27 years) diagnosed with schizophrenia, was on the maintenance neuroleptic therapy and had menstrual cycle irregularities in the form of amenorrhea (for more than 6 months). Of those, 4 had amenorrhea of not established nature, observed also prior to the pronounced primary manifestation of mental disorder, 6 patients had amenorrhea that developed during treatment with neuroleptics. Phenotropil, tablets was administered in doses of 100 mg and 200 mg per day as part of a complex antipsychotic therapy as a corrector of psychogenic side effects of neuroleptics. The dose was selected based on the individual and clinical features of the patients. The duration of Phenotropil therapy was 3 months. Two groups (14-18 years) with functional dysmenorrhea and manifestations of pronounced spastic symptoms were studied. Duration of the Phenotropil monotherapy (50 and 100 mg per day) was one month followed by administration of the drug at one-week courses as a preventive agent. Patients with functional dysmenorrhea were investigated for cAMP level in comparison with the norm control group. The cAMP level was determined using the standard kits, by the method based on the competition with the labeled cyclic 3′,5-adenosine monophosphate in the level of binding with […].
# [9] = tested on: cortisol; assay: Plasma cortisol level (Tsf-activity) in August and Wistar rats; format: in vivo; conditions: for Tsf-activity by cortisol at 3 hours vs control / plasma cortisol at 60 min / Tsf-activity by cortisol at 60 min vs control: i.p. 1.0-750 mg/kg, averaged
# [10] = mice, Benzedrine 3 mg/kg + Phenotropil 50.0 mg/kg
# [11] = mice, Benzedrine 3 mg/kg + Phenotropil 100.0 mg/kg
# [12] = mice, Benzedrine 3 mg/kg + Phenotropil 300.0 mg/kg
# [13] = mice, doses of 50 and 100 mg/kg (so in the source)
# [14] = August rats, single Ns-exposure + 200 mg/kg
# [15] = Wistar rats, single Ns-exposure + 200 mg/kg
smiles,measurement,setting,value
"NC(=O)CN1CC(c2ccccc2)CC1=O (racemic) [Compound 1, (RS)-2-(2-oxo-4-phenylpyrrolidine-1-yl)acetamide]",effect on acne rash,"[1]; 0.1% solution, one month",79-84%
same,Efficacy expressed in % (acne rush during hormonal alteration),[1]; dry skin,−84 * %
same,Efficacy expressed in % (acne rush during hormonal alteration),[1]; oily skin,−79 * %
same,CCA blood flow (1-2 min) vs background,[2],+26.0%
same,SBP (1-2 min) vs background,[2],−24.0%
same,SBP (at 4 min) vs background,[2],+14%
same,VPR (at 5 min) vs background,[2],−46.0%
same,Number of pulses for 3 min.,[3]; [10],126.0 ± 12.4
same,Number of stand-ups for 3 min.,[3]; [10],15.9 ± 2.0
same,Number of pulses for 3 min.,[3]; [11],129.2 ± 14.2
same,Number of stand-ups for 3 min.,[3]; [11],24.2 ± 4.8
same,Number of pulses for 3 min.,[3]; [12],48.1 ± 9.4
same,Number of stand-ups for 3 min.,[3]; [12],12.1 ± 4.6
same,"increase of orientation and exploratory behavior, horizontal component, vs control",[3]; [13],240.0%
same,"increase of orientation and exploratory behavior, vertical component, vs control",[3]; [13],89.0%
same,"reduction of psychostimulant effect of Benzedrine, horizontal component",[3]; single 300 mg/kg,~42.9%
same,"reduction of psychostimulant effect of Benzedrine, vertical component",[3]; single 300 mg/kg,14.8%
same,LD50,[4],800 mg/kg
same,LD16,"[5]; rats 30-35 days, single i.p.",LD16 = 906.7 mg/kg
same,LD84,"[5]; rats 30-35 days, single i.p.",LD84 = 1159.0 mg/kg
same,Dead/total number,"[5]; rats 30-35 days, single i.p. 800 mg/kg",0/10
same,Dead/total number,"[5]; rats 30-35 days, single i.p. 1000 mg/kg",4/10
same,Dead/total number,"[5]; rats 30-35 days, single i.p. 1100 mg/kg",9/10
same,Dead/total number,"[5]; rats 30-35 days, single i.p. 1200 mg/kg",9/10
same,Dead/total number,"[5]; rats 30-35 days, single i.p. 1500 mg/kg",10/10
same,% of dead rat pups,[5]; single i.p. 800 mg/kg,0%
same,% of dead rat pups,[5]; single i.p. 1000 mg/kg,40%
same,% of dead rat pups,[5]; single i.p. 1100 mg/kg,90%
same,% of dead rat pups,[5]; single i.p. 1200 mg/kg,90%
same,% of dead rat pups,[5]; single i.p. 1500 mg/kg,100%
same,LD50 at 14 days,[6],1030 mg/kg
same,Optical density of the samples vs control,"[7]; August rats, 200 mg/kg single, no Ns",+188.4 * %
same,km % vs outbred group,"[7]; August rats, 200 mg/kg, normal conditions",0%
same,increase of plasma MDA concentration vs baseline control,"[7]; August rats, exposure to Ns",2.2 times
same,plasma MDA higher than with Phenotropil without Ns,"[7]; August rats, exposure to Ns",17.0%
same,MDA content vs control,[7]; [14],+223.0 * %
same,Optical density of the samples vs control,[7]; [14],+220.3 * %
same,km % vs outbred group,"[7]; August rats, three-time Ns + 200 mg/kg",+27.8% *
same,Optical density of the samples vs control,"[7]; Wistar rats, 200 mg/kg single, no Ns",+66.5 * %
same,km % vs outbred group,"[7]; Wistar rats, 200 mg/kg, normal conditions",0%
same,km % vs experimental control (saline),"[7]; Wistar rats, 200 mg/kg",−65.6% and −65.6 *** %
same,reduction of MDA level vs baseline control without stress,"[7]; Wistar rats, exposure to Ns",6.0%
same,MDA content vs control,[7]; [15],−6.0 * %
same,Optical density of the samples vs control,[7]; [15],−6.0 * %
same,km % vs outbred group,"[7]; Wistar rats, three-time Ns + 200 mg/kg",−33.3% *
same,km % vs experimental control (saline),"[7]; outbred rats, 200 mg/kg",−73.0% and −73.0 *** %
same,increase of species reserve of stability (intra-species Kt) in acute Ns-state,"[7]; rats, during treatment",12.5%
same,activation in August relative to Wistar strain,"[7]; single injection, no stress",2.9 times
same,effect of course use on serum cAMP,"[8]; functional dysmenorrhoea, monotherapy 50 and 100 mg per day, 30 days",restored the functional norm of cAMP indicators
same,cAMP level,[8]; dose 50 mg,14.35 ± 0.87 nmol/L
same,"cAMP level, change in % (vs background dysmenorrhea)",[8]; dose 50 mg,−32%
same,cAMP level,[8]; dose 100 mg,12.77 ± 1.24 nmol/L
same,"cAMP level, change in % (vs background dysmenorrhea)",[8]; dose 100 mg,−39%
same,Tsf-activity by cortisol at 3 hours vs control,[9]; August rats,+6.8%
same,plasma cortisol at 60 min,[9]; August rats,45.6 ± 4.1 nmol/L
same,Tsf-activity by cortisol at 60 min vs control,"[9]; August rats, listed as (RS)-2-(2-oxo-4-phenylpyrrolidin-1-yl)acetamide",+14.1%
same,Tsf-activity by cortisol at 60 min vs control,"[9]; August rats, listed as Phenotropil",+14.1* %
same,modulation factor change compared to the control,"[9]; August rats, single dose",−11.5%
same,Tsf-activity by cortisol at 3 hours vs control,[9]; Wistar rats,−7.6%
same,plasma cortisol at 60 min,[9]; Wistar rats,50.9 ± 4.4 nmol/L
same,Tsf-activity by cortisol at 60 min vs control,"[9]; Wistar rats, listed as (RS)-2-(2-oxo-4-phenylpyrrolidin-1-yl)acetamide",+2.0%
same,"biologically active dose (reliable effect on plasma cortisol), starting from","[9]; rats, i.p., range tested 0.5-750.0 mg/kg",≥ 1.0 mg/kg
